Laboratory results published in US20230293433A1, “METHOD OF MANUFACTURING MICELLES FOR DRUG DELIVERY” (Wisconsin Alumni Research Foundation, priority 2022, published 2023).

Assays:
Assay type in all cases: physicochemical
[1] = Solubility of PTX in PEG-water mixtures; details: all examined PEG molecular weights
Excerpt: To begin with, we measured the solubility of PTX in mixtures of water and PEG of different molecular weights as a function of water content. Hydrophobic drugs such as PTX are highly soluble in liquid PEG. Addition of water, however, if surpasses a critical point, will result in precipitation of PTX (see FIG. 4). This critical point is positioned near 50.0 wt. % water content (or water:PEG 1:1 w/w ratio) for all the examined molecular weights. In other words, presence of equal or larger amount of water in a PEG-water mixture prohibits PTX solubility. Considering the PEG-assist preparation procedure, the water content always well exceeds the critical value in the final product (ca. 85.0, 92.0 or 96.0 wt. % water content at 1 mg/mL PTX level for 10, 20 or 33 wt. % target loading, respectively). Therefore, PEG-water mixture cannot play any solubilization role for PTX in the proposed system, and the drug is expected to mainly reside in the PEG-b-PLA micelles' core.

[2] = Particle size, PdI and zeta potential by dynamic light scattering; details: PROTAC-loaded PEG-b-PLA micelles, PEG1000, hydrated at 40° C.
Experimental: Dynamic light scattering (DLS, nano ZS, Malvern) was used to measure particle size distribution and to investigate micelle formation. For particle size analysis, the measurements were carried out at 25° C. using water as dispersant.

[3] = Encapsulation efficiency and drug loading of PEG-assist micelles (centrifugation, HPLC)
Experimental: In order to prepare drug-loaded micelles, PTX (at a weight ratio of 1:2 w/w PTX: PEG4kDa-b-PLA2.2kDa corresponding to target loading of ca. 33 wt. %) was added to the mixture prior to heating to 60° C. The amount of water when PTX was present in the formulation was adjusted to aim for 4 mg/mL PTX level. […] The hydration process was performed under different conditions including rapid hydration (vortexing after addition of water) or slow hydration (a two-step hydration protocol consisting of addition of half of the target water volume followed by mixing and then addition of the rest followed by gentle mixing at 50 rpm in a rotary mixer). Micelles with the target loadings of 10 and 20 wt. % as well as 1 mg/mL PTX target level were prepared after optimizing the process parameters and used for other experiments such as stability measurement, scalability study and freeze-drying. To prepare formulations with 1 mg/mL PTX target level at 10 or 20 wt. % target loading, 1 mg PTX together with 9 or 4 mg copolymer were mixed with 170 or 75 mg PEG, respectively, and heated to 60° C. to obtain a transparent mixture. The added amounts of PEG keep the block copolymer concentration at 5.0 wt. % in the mixture. The mixture was cooled down to 40° C., incubated for 2 h followed by hydration with 1 mL DI water at 40° C. to obtain drug-loaded polymeric micelles. The samples were cooled down to room temperature and analyzed.
To measure the encapsulation efficiency, unencapsulated drug was first removed by centrifugation at 10000 g for 10 min. Following centrifugation, 50 μl of supernatant for each sample was mixed with 50 μl DI water and 400 μl acetonitrile (ACN). High performance liquid chromatography (HPLC, Prominence, Shimadzu, Japan) equipped with an autosampler, a C18 column and a UV-Vis detector was employed to measure PTX content. PTX was detected at 228 nm absorption wavelength by injecting 10 μl sample through an 80/20 ACN/water v/v mixture as the mobile phase under the flow rate of 0.5 mL/min. […]

[4] = Stability of micelle formulations at room temperature; details: 20 wt. % target loading, 1 mg/mL, PEG1000, 40° C.
Experimental: We considered stability, applicability to other drugs and copolymers, scalability and long-term preservation as four more criteria to evaluate the PEG-assist method. The stability of PTX-loaded PEG-b-PLA micelles prepared at 20 wt. % target loading with 1 mg/mL target PTX level is shown in FIG. 9A. All the samples were prepared at saturation temperature i.e. 40° C. […] In other words, PTX remains soluble after 8 hours incubation at room temperature without any significant loss for any of the PEG molecular weights (p>0.05). […] We observed that all the samples were completely transparent without any visual precipitation within the 8 h time frame. […] The inherent incompatibility of PTX with the micelle core can be alleviated using acyl and ester prodrug strategies for physical loading purposes [Tam, Y. T., et al., “Poly (ethylene glycol)-block-poly (d, 1-lactic acid) micelles containing oligo (lactic acid) 8-paclitaxel prodrug: In Vivo conversion and antitumor efficacy” J. Control. Rel., 2019. 298:186-193; Tam, Y. T., J. Gao, and G. S. Kwon, “Oligo (lactic acid) n-paclitaxel prodrugs for poly (ethylene glycol)-block-poly (lactic acid) micelles: loading, release, and backbiting conversion for anticancer activity” J. Am. […]
The samples in Example 16, were monitored for stability after reconstitution. The particle size and PdI was measured at different time points (1, 2 and 7 days).

[5] = PROTAC-loaded PEG-b-PLA micelles, PEG1000, hydrated at 40° C.

For `CC(=O)O[C@H]1C(=O)[C@@]2(C)[C@H]([C@H](OC(=O)c3ccccc3)[C@]3(O)C[C@H](OC(=O)[C@H](O)[C@@H](NC(=O)c4ccccc4)c4ccccc4)C(C)=C1C3(C)C)[C@]1(OC(C)=O)CO[C@@H]1C[C@@H]2O` [PTX, Paclitaxel], which “critical water content of PEG-water mixture above which PTX precipitates” value [1] is on record?
The value was about 50.0 wt. %.

For `COc1cc2ncnc(Nc3ccc(F)c(Cl)c3)c2cc1OCCCCCOCCOCCC(=O)N[C@H](C(=O)N1C[C@H](O)C[C@H]1C(=O)NCc1ccc(-c2scnc2C)cc1)C(C)(C)C` [Gefitinib-based PROTAC3], which PdI [2] is on record?
Its PdI is 0.208.

And the Size [2]?
The Size was 34.1 ± 6.5 nm.

And the Zeta potential [2]?
Its Zeta potential is 3.39 ± 14.2 mV.

What about the “% Drug Loading” value [3, 5] of the same compound?
Its value is 17.2%.

And the “% Encapsulation Efficiency” value [3, 5]?
Its value is 83.0%.

For `C=CCNC1=C2C[C@@H](C)C[C@H](OC)[C@H](O)[C@@H](C)/C=C(\C)[C@H](OC(N)=O)[C@@H](OC)/C=C\C=C(/C)C(=O)NC(=CC1=O)C2=O` [Sample 17AAG], which “time stable at room temperature” value [4] is on record?
The value was “at least 24 h”.

What about the encapsulation efficiency ([3]; 17AAG, 20 wt. % target loading, 1 mg/mL, PEG1000, 40° C.) of the same compound?
Its encapsulation efficiency is 80.2±2.1%.
